This note sets out measurements from patent publication US20220031611A1, “IMMUNOSUPPRESSIVE DOSAGE FORMS AND METHODS OF USE” (Gemini Laboratories, LLC, priority 2018, published 2022).

This series in a line: Storage stability: % assay of Tacrolimus. Type of series: physicochemical. Conditions: active pharmaceutical ingredient (API) lot, comparator. The text has this: The pharmaceutical formulations disclosed herein may comprise oral formulations having improved solubility and/or stability profiles. The formulations may be suitable for oral delivery, for example via a solution or suspension. The formulations orally administrated via a solution or suspension can be bioequivalent to formulations administered via oral capsules, or any other administration route. The formulations disclosed herein are stable under standard storage conditions or accelerated conditions. The total amount of impurities in the formulations may be not more than about 0.1 to 3%, and standard storage conditions may comprise a temperature of about 20 to 25° C. (i.e., room temperature) and no more than about 40% Relative Humidity (RH). In one embodiment, the formulations disclosed herein are stable at room temperature for 18 to 24 months or longer. The stability of a formulation according to the present disclosure can be determined, for example, by measuring the physical state of the formulation, including the viscosity and presence of any discoloration and chemical stability by measuring assay of API & related compound. Tables 4 and 5 present stability characteristics of the compositions provided in Examples 1 & 2 above. The following Tables 8-9 show purity of a Tacrolimus oral solution of 1 mg/ml as a percent assay, based on the batch descriptions in Table 7. […]

Consider `C=CC[C@@H]1/C=C(\C)C[C@H](C)C[C@H](OC)[C@H]2O[C@@](O)(C(=O)C(=O)N3CCCC[C@H]3C(=O)O[C@H](/C(C)=C/[C@@H]3CC[C@@H](O)[C@H](OC)C3)[C@H](C)[C@@H](O)CC1=O)[C@H](C)C[C@@H]2OC` [API_Lot # DMP (079)-38, Tacrolimus], for which the “% Assay” value was found to be 97.1%.
